Reference: patent US20140288073A1, “Method of Treating Gastrointestinal Stromal Tumors” (NOVARTIS AG, priority 2011, published 2014)
“Also recorded” adds a separate entry of the source.

Tests used:
GIST882 cells = assay: CellTiter-Glo cell viability/proliferation assay, GIST882; assay type: cell-based, human; settings: for Inhibition of proliferation as single agent: GIST882 (K642E mutant KIT), Example 2; for Combination Index for 70% inhibition of GIST cell proliferation / Synergy Score for inhibition of GIST cell proliferation: Imatinib combined with the compound
Excerpt: (§1) GIST882, GIST48 and GIST430 cell lines were obtained from the Brigham and Women's Hospital, Boston, Mass. GIST882 was established from an untreated human GIST with a homozygous missense mutation in KIT exon 13, encoding a […] mutant KIT protein ([…], et al. Oncogene 2001; 20: 5054-5058). […] GIST48 has a primary homozygous exon 11 missense mutation […]) and a secondary heterozygous exon 17 missense mutation […]). GIST430 has a primary heterozygous exon 11 in-frame deletion and a secondary heterozygous exon 13 missense mutation (V654A). GIST-T1 was obtained from Kochi Medical School, Kochi, Japan. It was established from a metastatic human GIST with a heterozygous […] bases in exon 11 of KIT (Taguchi T, Sonobe H, Toyonaga S, et al. Lab Invest 2002; 82: 663-665). […] Cell proliferation was measured using the CellTiter-Glo luminescent cell viability assay (Promega catalog #G755B) and Victor4 plate reader (Perkin Elmer). Synergy scores and CI70 calculations were determined as described elsewhere (Lehar J, Krueger A S, et al. Nat Biotechnol 2009; 27: 659-666).

GIST-T1 cells = assay: CellTiter-Glo cell viability/proliferation assay, GIST-T1; assay type: cell-based, human; settings: for Inhibition of proliferation as single agent: GIST-T1 (ex11del KIT), Example 2; for Combination Index for 70% inhibition of GIST cell proliferation / Synergy Score for inhibition of GIST cell proliferation: Imatinib combined with the compound
Excerpt: as §1

GIST cell lines = assay: Combination effect on growth of GIST cell lines (FIG. 6); assay type: cell-based, human; settings: combination with nilotinib, presence of 20 ng/ml FGF2, monophosphate
Protocol: FIG. 6: Combination effect of nilotinib plus BGJ398 in GIST cell lines in the presence of 20 ng/ml FGF2.
10,000 cells suspended in 80 μl media were seeded into each well of a 96-well cell-culture plate and grown for 24 hours prior to treatment. 10 μl of 60 μg/mL heparin (Sigma Catalog # H3149) was added to each well, and then 10 μl of 50 μg/mL FGF2 (R&D Catalog #233-FB/CF) or media was added to each well of the plates. 10 μl of each of the compound dilutions described above and 10 μl of media were added to wells to a final volume 120 μl such that all pair-wise combinations as well as the single agents were represented. Cells were incubated for 72 hrs at 37° C. in a 5% CO2 incubator following compound addition. Cell proliferation was measured using the CellTiter-Glo luminescent cell viability assay (Promega catalog #G755B) and Victor4 plate reader (Perkin Elmer). Synergy scores and CI70 calculations were determined as described elsewhere (Lehar J, Krueger A S, et al. Nat Biotechnol 2009; 27: 659-666).

GIST48 cells = assay: CellTiter-Glo cell viability/proliferation assay, GIST48; assay type: cell-based, human; settings: for Inhibition of proliferation as single agent: Example 2; for Combination Index for 70% inhibition of GIST cell proliferation / Synergy Score for inhibition of GIST cell proliferation: Imatinib combined with the compound
Excerpt: as §1

GIST430 cells = assay: CellTiter-Glo cell viability/proliferation assay, GIST430; assay type: cell-based, human; settings: for Inhibition of proliferation as single agent: GIST430 (ex11del/V654A KIT), Example 2; for Growth suppression in combination with imatinib versus single agent treatment / Combination Index for 70% inhibition of GIST cell proliferation / Synergy Score for inhibition of GIST cell proliferation: GIST430; for Combination Index for 70% inhibition of GIST cell proliferation / Synergy Score for inhibition of GIST cell proliferation: Imatinib combined with the compound
Excerpt: as §1

GIST [1] = settings: cited from earlier work
GIST [2] = settings: cited from earlier work; remark: listed apart in the source
[3] = GIST882, absence of FGF2, 3 days
[4] = GIST882, presence of added FGF2, 3 days
[5] = GIST-T1, absence of FGF2, 3 days
[6] = GIST-T1, presence of added FGF2, 3 days
[7] = GIST882, combination with imatinib

| Structure (SMILES) | Growth inhibition as single agent (GIST882 cells; [3]) | Growth inhibition as single agent (GIST882 cells; [4]) | Growth inhibition as single agent (GIST-T1 cells; [5]) | Growth inhibition as single agent (GIST-T1 cells; [6]) | Inhibition of proliferation as single agent (GIST882 cells) | Growth suppression in combination with imatinib versus single agent treatment (GIST882 cells; [7]) | Combination Index for 70% inhibition of GIST cell proliferation (GIST882 cells; GIST882) | Synergy Score for inhibition of GIST cell proliferation (GIST882 cells; GIST882) | Inhibition of proliferation as single agent (GIST-T1 cells) | Combination Index for 70% inhibition of GIST cell proliferation (GIST-T1 cells; GIST-T1) | Synergy Score for inhibition of GIST cell proliferation (GIST-T1 cells; GIST-T1) | Inhibition of proliferation as single agent (GIST48 cells) | Combination Index for 70% inhibition of GIST cell proliferation (GIST48 cells) | Synergy Score for inhibition of GIST cell proliferation (GIST48 cells) | Inhibition of proliferation as single agent (GIST430 cells) | Growth suppression in combination with imatinib versus single agent treatment (GIST430 cells) | Combination Index for 70% inhibition of GIST cell proliferation (GIST430 cells) | Synergy Score for inhibition of GIST cell proliferation (GIST430 cells) | further results |
| --- | --- | --- | --- | --- | --- | --- | --- | --- | --- | --- | --- | --- | --- | --- | --- | --- | --- | --- | --- |
| CCN1CCN(c2ccc(Nc3cc(N(C)C(=O)Nc4c(Cl)c(OC)cc(OC)c4Cl)ncn3)cc2)CC1.O=P(O)(O)O [BGJ398, 3-(2,6-dichloro-3,5-dimethoxy-phenyl)-1-{6-[4-(4-ethyl-piperazin-1-yl)-phenylamino]-pyrimid-4-yl}-1-methyl-urea monophosphate] | did not significantly affect the viability | did not significantly affect the viability | did not significantly affect the viability | did not significantly affect the viability |  |  |  |  |  |  |  |  |  |  |  |  |  |  | Combination effect on growth inhibition (GIST882 cells; GIST882, combination with imatinib, presence of FGF2 (20 ng/ml)): strong combination effects; Combination effect on growth inhibition (GIST-T1 cells; GIST-T1, combination with imatinib, presence of FGF2 (20 ng/ml)): strong combination effects; Combination effect on growth inhibition (GIST cell lines): strong combination effects; also recorded: synergy |
| Cn1c(=O)n(-c2ccc(C(C)(C)C#N)cc2)c2c3cc(-c4cnc5ccccc5c4)ccc3ncc21 [COMPOUND A, 2-methyl-2-[4-(3-methyl-2-oxo-8-quinolin-3-yl-2,3-dihydro-imidazo[4,5-c]quinolin-1-yl)-phenyl]-propionitrile] |  |  |  |  | inhibited the proliferation of all four cell-lines at low micromolar concentrations | growth suppression was observed in excess of the percent inhibition achieved by imatinib or COMPOUND A single agent treatment | 0.194 | 5.07 | inhibited the proliferation of all four cell-lines at low micromolar concentrations | 0.493 | 1.10 | inhibited the proliferation of all four cell-lines at low micromolar concentrations | 1.25 | 0.38 | inhibited the proliferation of all four cell-lines at low micromolar concentrations | growth suppression was observed in excess of the percent inhibition achieved by imatinib or COMPOUND A single agent treatment | 0.260 | 2.06 |  |
| Nc1cc(C(F)(F)F)c(-c2cc(N3CCOCC3)nc(N3CCOCC3)n2)cn1 [COMPOUND C, 5-(2,6-di-morpholin-4-yl-pyrimidin-4-yl)-4-trifluoromethyl-pyridin-2-ylamine] |  |  |  |  | inhibited the proliferation of all four cell-lines at low micromolar concentrations | growth suppression was observed in excess of the percent inhibition achieved by imatinib or COMPOUND C single agent treatment | 0.597 | 1.90 | inhibited the proliferation of all four cell-lines at low micromolar concentrations | 0.782 | 1.29 | inhibited the proliferation of all four cell-lines at low micromolar concentrations | 0.716 | 1.20 | inhibited the proliferation of all four cell-lines at low micromolar concentrations | growth suppression was observed in excess of the percent inhibition achieved by imatinib or COMPOUND C single agent treatment | 0.252 | 1.96 |  |
| Cc1nc(NC(=O)N2CCC[C@H]2C(N)=O)sc1-c1ccnc(C(C)(C)C(F)(F)F)c1 [COMPOUND D, (S)-pyrrolidine-1,2-dicarboxylic acid 2-amide 1-({4-methyl-5-[2-(2,2,2-trifluoro-1,1-dimethyl-ethyl)-pyridin-4-yl]-thiazol-2-yl}-amide)] |  |  |  |  | little or no effect |  |  | 0.46 | little or no effect | 0.988 | 1.06 | little or no effect | 1.18 | 1.98 | little or no effect | growth suppression was observed in excess of the percent inhibition achieved by imatinib or COMPOUND D single agent treatment | 0.791 | 2.04 | Growth suppression in combination with imatinib versus single agent treatment (GIST48 cells; combination with imatinib): growth suppression was observed in excess of the percent inhibition achieved by imatinib or COMPOUND D single agent treatment |
| Cc1ccc(NC(=O)c2ccc(CN3CCN(C)CC3)cc2)cc1Nc1nccc(-c2cccnc2)n1 [imatinib, 4-(4-methylpiperazin-1-ylmethyl)-N-[4-methyl-3-(4-(pyridin-3-yl)pyrimidin-2-ylamino)phenyl]-benzamide, reference compound] | efficacious | less sensitive | efficacious | less sensitive | potently inhibited |  |  |  | potently inhibited |  |  | imatinib resistant |  |  | potently inhibited |  |  |  | Progression-free survival (PFS) (GIST [1]; 800 mg/day compared to 400 mg/day, advanced GIST harboring KIT exon 9 mutations): significantly improves; Patients progressing after 2 years of first line therapy (GIST [1]; advanced GIST, first line therapy): more than 50%; Recurrence-free survival (RFS) (GIST [2]; 400 mg/day for 12 months compared with placebo, after complete resection (ACOSOGZ9001)): significantly prolonged; RFS and overall survival (GIST [2]; 36 months versus 12 months adjuvant therapy, 400 mg once daily (SSGXVIII/AIO)): superior to 12 months |
| Cc1cn(-c2cc(NC(=O)c3ccc(C)c(Nc4nccc(-c5cccnc5)n4)c3)cc(C(F)(F)F)c2)cn1 [nilotinib, 4-methyl-3-[[4-(3-pyridinyl)-2-pyrimidinyl]amino]-N-[5-(4-methyl-1H-imidazol-1-yl)-3-(trifluoromethyl)phenyl]benzamide, reference compound] | sensitive |  | sensitive |  |  |  |  |  |  |  |  |  |  |  |  |  |  |  | GI50 shift in the presence of added FGF2 (GIST882 cells; GIST882, 3 days, with vs without added FGF2 (50, 25, 12 ng/ml)): greater than 10 fold; GI50 shift in the presence of added FGF2 (GIST-T1 cells; GIST-T1, 3 days, with vs without added FGF2 (50, 25, 12 ng/ml)): greater than 10 fold |
